Measurements taken from patent US9012398B2, “Acylated exendin-4 compounds” (priority 2006, dated 2015).
Like-named read-outs stand apart in the source and are kept apart here. Starred links: 1 amine or outer side, 2 acyl side, 3 side chain; linkers in the order of their positions; H or OH if unused. Residues, ends and D or L forms follow the SMILES beside them. Groups on a side chain read outwards from the residue. *: point of attachment. C18 diacid = O=C(O)CCCCCCCCCCCCCCCCC(=O)*; γGlu = O=C(O)[C@H](CCC(=O)[*:2])N[*:1]; Stearoyl = CCCCCCCCCCCCCCCCCC(=O)*; Palmitoyl = CCCCCCCCCCCCCCCC(=O)*; AEEA = NCCOCCOCC(=O)O

Target: T1, human GLP-1 receptor (Homo sapiens, UniProt P43220)
T1 construct: expressed in transfected cells; host or cells: BHK cells, clone BHK-467-12A; plasma membrane preparation
Assay: Functional receptor assay: cAMP formation in plasma membranes of BHK cells expressing the cloned human GLP-1 receptor (GLP1cAMPma)
Type: biochemical
Description: The term “insulinotropic agent” as used herein means a compound which is an agonist of the human GLP-1 receptor, i.e. a compound which stimulates the formation of cAMP in a suitable medium containing the human GLP-1 receptor (one such medium disclosed below). The potency of an insulinotropic agent is determined by calculating the EC50 value from the dose-response curve as described below.
The cells were washed twice in phosphate buffered saline and harvested with Versene. Plasma membranes were prepared from the cells by homogenisation with an Ultraturrax in buffer 1 (20 mM HEPES-Na, 10 mM EDTA, pH 7.4). The homogenate was centrifuged at 48,000×g for 15 min at 4° C. The pellet was suspended by homogenization in buffer 2 (20 mM HEPES-Na, 0.1 mM EDTA, pH 7.4), then centrifuged at 48,000×g for 15 min at 4° C. The washing procedure was repeated one more time. The final pellet was suspended in buffer 2 and used immediately for assays or stored at −80° C.
The functional receptor assay was carried out by measuring cyclic AMP (cAMP) as a response to stimulation by the insulinotropic agent. cAMP formed was quantified by the AlphaScreen™ cAMP Kit (Perkin Elmer Life Sciences). Incubations were carried out in half-area 96-well microtiter plates in a total volume of 50 μL buffer 3 (50 mM Tris-HCl, 5 mM HEPES, 10 mM MgCl2, pH 7.4) and with the following additions: 1 mM ATP, 1 μM GTP, 0.5 mM 3-isobutyl-1-methylxanthine (IBMX), 0.01% Tween-20, 0.1% BSA, 6 μg membrane preparation, 15 μg/mL acceptor beads, 20 μg/mL donor beads preincubated with 6 nM biotinyl-cAMP. […] GTP was freshly prepared for each experiment. The plate was incubated in the dark with slow agitation for three hours at room temperature followed by counting in the Fusion™ instrument (Perkin Elmer Life Sciences). Concentration-response curves were plotted for the individual compounds and EC50 values estimated using a four-parameter logistic model with Prism v. 4.0 (GraphPad, Carlsbad, Calif.).

[1] = cAMP, membranes with human GLP-1 receptor, mean value, read-out: GLP1cAMPma (3693) [EC50 (nM)] Mean Value

T1 sequence (P43220 24-463): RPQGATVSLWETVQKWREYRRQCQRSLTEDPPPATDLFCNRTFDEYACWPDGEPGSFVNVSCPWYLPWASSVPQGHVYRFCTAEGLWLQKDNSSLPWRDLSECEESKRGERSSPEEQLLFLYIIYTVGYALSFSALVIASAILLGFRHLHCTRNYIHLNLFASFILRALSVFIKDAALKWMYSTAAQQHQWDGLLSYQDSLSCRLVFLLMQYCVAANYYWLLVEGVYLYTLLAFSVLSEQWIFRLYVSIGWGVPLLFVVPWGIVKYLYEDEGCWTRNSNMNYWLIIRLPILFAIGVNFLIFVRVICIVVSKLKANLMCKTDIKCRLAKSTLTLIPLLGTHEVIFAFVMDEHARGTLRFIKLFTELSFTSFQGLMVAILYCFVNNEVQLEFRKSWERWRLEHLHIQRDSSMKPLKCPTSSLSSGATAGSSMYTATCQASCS

In the case of `CC[C@H](C)[C@H](NC(=O)[C@H](Cc1ccccc1)NC(=O)[C@H](CC(C)C)NC(=O)[C@H](CCCCNC(=O)COCCOCCNC(=O)COCCOCCNC(=O)CCCCCCCCCCCCCCCCC(=O)O)NC(=O)[C@@H](NC(=O)[C@H](C)NC(=O)[C@H](CCC(=O)O)NC(=O)[C@H](CCC(=O)O)NC(=O)[C@H](CCC(=O)O)NC(=O)[C@H](CC(C)C)NC(=O)[C@H](CCC(N)=O)NC(=O)[C@H](CCCNC(=N)N)NC(=O)[C@H](CO)NC(=O)[C@H](CC(C)C)NC(=O)[C@H](CC(=O)O)NC(=O)[C@H](CO)NC(=O)[C@@H](NC(=O)[C@H](Cc1ccccc1)NC(=O)[C@@H](NC(=O)CNC(=O)[C@H](CCC(=O)O)NC(=O)CNC(=O)[C@@H](N)Cc1c[nH]cn1)[C@@H](C)O)[C@@H](C)O)C(C)C)C(=O)N[C@@H](CCC(=O)O)C(=O)N[C@@H](Cc1c[nH]c2ccccc12)C(=O)N[C@@H](CC(C)C)C(=O)N[C@@H](CCCNC(=N)N)C(=O)N[C@@H](CCC(N)=O)C(=O)NCC(=O)NCC(=O)N1CCC[C@H]1C(=O)N[C@@H](CO)C(=O)N[C@@H](CO)C(=O)NCC(=O)N[C@@H](C)C(=O)N1CCC[C@H]1C(=O)N1CCC[C@H]1C(=O)N1CCC[C@H]1C(=O)N[C@@H](CO)C(N)=O` [Example 12, N-ε^20-(2-(2-(2-(2-(2-(2-(17-carboxyheptadecanoylamino)ethoxy)ethoxy)acetylamino)ethoxy)ethoxy)acetyl)[Arg12,Leu^14,Arg^27,Gln^28,Lys^20]Exendin-4 (1-39)amide] (H-HGEGTFTSDLSRQLEEEAVK([AEEA-AEEA-C18 diacid])LFIEWLRQGGPSSGAPPPS-NH2; N-terminus assumed), the EC50 [1] is reported as 5.45 nM.

In the case of `CCCCCCCCCCCCCCCCCC(=O)N[C@@H](CCC(=O)NCCOCCOCC(=O)NCCOCCOCC(=O)NCCCC[C@H](NC(=O)[C@@H](NC(=O)[C@H](C)NC(=O)[C@H](CCC(=O)O)NC(=O)[C@H](CCC(=O)O)NC(=O)[C@H](CCC(=O)O)NC(=O)[C@H](CC(C)C)NC(=O)[C@H](CCC(N)=O)NC(=O)[C@H](CCCNC(=N)N)NC(=O)[C@H](CO)NC(=O)[C@H](CC(C)C)NC(=O)[C@H](CC(=O)O)NC(=O)[C@H](CO)NC(=O)[C@@H](NC(=O)[C@H](Cc1ccccc1)NC(=O)[C@@H](NC(=O)CNC(=O)[C@H](CCC(=O)O)NC(=O)CNC(=O)[C@@H](N)Cc1c[nH]cn1)[C@@H](C)O)[C@@H](C)O)C(C)C)C(=O)N[C@@H](CC(C)C)C(=O)N[C@@H](Cc1ccccc1)C(=O)N[C@H](C(=O)N[C@@H](CCC(=O)O)C(=O)N[C@@H](Cc1c[nH]c2ccccc12)C(=O)N[C@@H](CC(C)C)C(=O)N[C@@H](CCCNC(=N)N)C(=O)N[C@@H](CCC(N)=O)C(=O)NCC(=O)NCC(=O)N1CCC[C@H]1C(=O)N[C@@H](CO)C(=O)N[C@@H](CO)C(=O)NCC(=O)N[C@@H](C)C(=O)N1CCC[C@H]1C(=O)N1CCC[C@H]1C(=O)N1CCC[C@H]1C(=O)N[C@@H](CO)C(N)=O)[C@@H](C)CC)C(=O)O` [Example 15] (H-HGEGTFTSDLSRQLEEEAVK([AEEA-AEEA-γGlu-Stearoyl])LFIEWLRQGGPSSGAPPPS-NH2), the EC50 [1] is reported as 0.044 nM.

With `CCCCCCCCCCCCCCCCCC(=O)N[C@@H](CCC(=O)NCCOCCOCC(=O)NCCOCCOCC(=O)NCCCC[C@H](NC(=O)[C@@H]1CCCN1C(=O)CNC(=O)CNC(=O)[C@H](CCCNC(=N)N)NC(=O)[C@@H](NC(=O)[C@H](CC(C)C)NC(=O)[C@H](Cc1c[nH]c2ccccc12)NC(=O)[C@H](CCC(=O)O)NC(=O)[C@@H](NC(=O)[C@H](Cc1ccccc1)NC(=O)[C@H](CC(C)C)NC(=O)[C@H](CCCNC(=N)N)NC(=O)[C@@H](NC(=O)[C@H](C)NC(=O)[C@H](CCC(=O)O)NC(=O)[C@H](CCC(=O)O)NC(=O)[C@H](CCC(=O)O)NC(=O)[C@H](CC(C)C)NC(=O)[C@H](CCC(N)=O)NC(=O)[C@H](CCCNC(=N)N)NC(=O)[C@H](CO)NC(=O)[C@H](CC(C)C)NC(=O)[C@H](CC(=O)O)NC(=O)[C@H](CO)NC(=O)[C@@H](NC(=O)[C@H](Cc1ccccc1)NC(=O)[C@@H](NC(=O)CNC(=O)[C@H](CCC(=O)O)NC(=O)CNC(=O)[C@@H](N)Cc1c[nH]cn1)[C@@H](C)O)[C@@H](C)O)C(C)C)[C@@H](C)CC)C(C)C)C(=O)N[C@@H](CO)C(=O)NCC(=O)N[C@@H](C)C(=O)N1CCC[C@H]1C(=O)N1CCC[C@H]1C(=O)N1CCC[C@H]1C(=O)N[C@@H](CO)C(N)=O)C(=O)O` [Example 17, N-ε^32-(2-(2-(2-(2-(2-(2-(4-(Octadecanoylamino)-4(S)-carboxybutyrylamino))ethoxy)ethoxy)acetylamino)ethoxy)ethoxy)acetyl[Arg^12,Leu^14,Val^27,Arg^28,Lys^32]Exendin-4-(1-39)amide] (H-HGEGTFTSDLSRQLEEEAVRLFIEWLVRGGPK([AEEA-AEEA-γGlu-Stearoyl])SGAPPPS-NH2; N-terminus assumed) the EC50 was 0.025 nM.

For `CCCCCCCCCCCCCCCC(=O)N[C@@H](CCC(=O)NCCOCCOCC(=O)NCCOCCOCC(=O)NCCCC[C@H](NC(=O)[C@@H](NC(=O)[C@H](C)NC(=O)[C@H](CCC(=O)O)NC(=O)[C@H](CCC(=O)O)NC(=O)[C@H](CCC(=O)O)NC(=O)[C@H](CC(C)C)NC(=O)[C@H](CCC(N)=O)NC(=O)[C@H](CCCNC(=N)N)NC(=O)[C@H](CO)NC(=O)[C@H](CC(C)C)NC(=O)[C@H](CC(=O)O)NC(=O)[C@H](CO)NC(=O)[C@@H](NC(=O)[C@H](Cc1ccccc1)NC(=O)[C@@H](NC(=O)CNC(=O)[C@H](CCC(=O)O)NC(=O)CNC(=O)[C@@H](N)Cc1c[nH]cn1)[C@@H](C)O)[C@@H](C)O)C(C)C)C(=O)N[C@@H](CC(C)C)C(=O)N[C@@H](Cc1ccccc1)C(=O)N[C@H](C(=O)N[C@@H](CCC(=O)O)C(=O)N[C@@H](Cc1c[nH]c2ccccc12)C(=O)N[C@@H](CC(C)C)C(=O)N[C@@H](CCCNC(=N)N)C(=O)N[C@@H](CCC(N)=O)C(=O)NCC(=O)NCC(=O)N1CCC[C@H]1C(=O)N[C@@H](CO)C(=O)N[C@@H](CO)C(=O)NCC(=O)N[C@@H](C)C(=O)N1CCC[C@H]1C(=O)N1CCC[C@H]1C(=O)N1CCC[C@H]1C(=O)N[C@@H](CO)C(N)=O)[C@@H](C)CC)C(=O)O` [Example 18, N-ε^20-2-(2-(2-(2-(2-(2-(4-(Hexadecanoylamino)-4(S)-carboxybutyrylamino)ethoxy)ethoxy)acetylamino)ethoxy)ethoxy)acetyl[Arg^12,27,Leu^14,Lys^20,Gln^28]Exendin-4-(1-39)-peptide amide] (H-HGEGTFTSDLSRQLEEEAVK([AEEA-AEEA-γGlu-Palmitoyl])LFIEWLRQGGPSSGAPPPS-NH2; N-terminus assumed), the EC50 [1] was 0.033 nM.

`CC[C@H](C)[C@H](NC(=O)[C@H](Cc1ccccc1)NC(=O)[C@H](CC(C)C)NC(=O)[C@H](CCCNC(=N)N)NC(=O)[C@@H](NC(=O)[C@H](C)NC(=O)[C@H](CCC(=O)O)NC(=O)[C@H](CCC(=O)O)NC(=O)[C@H](CCC(=O)O)NC(=O)[C@H](CCCCNC(=O)COCCOCCNC(=O)COCCOCCNC(=O)CCCCCCCCCCCCCCCCC(=O)O)NC(=O)[C@H](CCC(N)=O)NC(=O)[C@H](CCCNC(=N)N)NC(=O)[C@H](CO)NC(=O)[C@H](CC(C)C)NC(=O)[C@H](CC(=O)O)NC(=O)[C@H](CO)NC(=O)[C@@H](NC(=O)[C@H](Cc1ccccc1)NC(=O)[C@@H](NC(=O)CNC(=O)[C@H](CCC(=O)O)NC(=O)CNC(=O)[C@@H](N)Cc1c[nH]cn1)[C@@H](C)O)[C@@H](C)O)C(C)C)C(=O)N[C@@H](CCC(=O)O)C(=O)N[C@@H](Cc1c[nH]c2ccccc12)C(=O)N[C@@H](CC(C)C)C(=O)N[C@H](C(=O)N[C@@H](CCCNC(=N)N)C(=O)NCC(=O)NCC(=O)N1CCC[C@H]1C(=O)N[C@@H](CO)C(=O)N[C@@H](CO)C(=O)NCC(=O)N[C@@H](C)C(=O)N1CCC[C@H]1C(=O)N1CCC[C@H]1C(=O)N1CCC[C@H]1C(=O)N[C@@H](CO)C(N)=O)C(C)C` [Example 27] (H-HGEGTFTSDLSRQK([AEEA-AEEA-C18 diacid])EEEAVRLFIEWLVRGGPSSGAPPPS-NH2; N-terminus assumed) showed an EC50 [1] of 3.65 nM.
